Data set [1] addresses KIF15/TPX2 protein-protein interaction (GST-KIF15 amino acids 1149-1388, His-TPX2 amino acids 346-747) (Homo sapiens (Human), UniProt Q9NS87). In words: KIF15/TPX2 AlphaScreen assay. The format is binding. How it is done:
The protocol designed peptides corresponding to the appropriate domains of KIF15 (amino acids 1149-1388, GST-tagged) and TPX2 (amino acids 346-747, His-tagged), for use in the AlphaScreen assay.
Next, the protocol screened a total of 191,852 compounds from the KU-HTS library. Analysis identified 584 hits that inhibited the primary AlphaScreen TPX2-KIF15 interaction to greater than three standard deviations plus the plate inhibition-median. The 584 hits were tested for assay interference in the AlphaScreen counter-screen using His-GST fusion protein. […] Of the 467 hits, 399 inhibited the TPX2-KIF15 interaction in a dose-response manner. Refinement was conducted until identifying the compounds provided herein.
To identify compounds that inhibit KIF15-mediated bipolar spindle formation, a process that is dependent on KIF15 binding to TPX2, the protocol designed a high-throughput screen using AlphaScreen Technology. Previous studies predicted that KIF15-TPX2 binding is mediated through a C-terminal coiled-coil domain on KIF15 (amino acids 1149-1388; amino acids 1359-1380) that binds the C-terminal region of TPX2 (amino acids 475-715; amino acids 680-747)^50, 52, 57, 58. Based on these observations, the protocol designed peptides corresponding to the appropriate domains of TPX2 (amino acids 346-747, His-tagged), and KIF15 (amino acids 1149-1388, GST-tagged) for use in the AlphaScreen assay.
Next, the protocol screened a total of 191,852 compounds from the KU-HTS small-molecule compound collection. The protocol identified 584 hits that inhibited the primary AlphaScreen TPX2-KIF15 interaction to greater than three standard deviations plus the plate inhibition-median. The 584 hits were tested for assay interference in the AlphaScreen assay counter-screen using His-GST fusion protein eliminating 117 compounds^99. […] Of the 467 hits, 399 inhibited the KIF15-TPX2 interaction in a concentration-dependent manner (FIGS. 3A-3D), rendering them candidates for follow-on validation in orthogonal and counter-screen assays. Informed by computational and medicinal chemistry assessment^100, the protocol selected a representative subset of approximately 200 of the 399 compound hits for additional characterization. Samples for 177 compounds from the subset of approximately 200 representative compounds were available for purchase. Samples of these 177 compounds were purchased for structure verification by NMR and further characterization. There was enough compound sample procured to complete follow-on screening for 166 of the 177 compounds.

In a further data set the target is GST-KIF15 1149-1388 (Homo sapiens (Human), UniProt Q9NS87). As to the kind of experiment: NMR (STD-NMR / WaterLOGSY) versus GST-KIF15. In kind it is binding. Particulars: for WaterLOGSY binding to GST-KIF15: 1:150 GST-KIF15 1149-1388. The protocol:
(§1) WaterLOGSY NMR Spectra of Compounds A1 and B2 are provided.
Various cocktails of compounds were prepared to test for interactions. 100 μL DMSO-d6 was added to 3 mg of material. 26 cocktails of 6 compounds were prepared and 3 cocktails of 7 compounds were prepared. Then, 3 μM protein is added to 300 μM of the cocktails in 10% D2O buffer. Concentration of compounds is 10 mM each.
(§2) The 166 compound hit samples were further characterized for KIF15 or TPX2 binding using biophysical saturation transfer difference nuclear magnetic resonance (STD-NMR) and WaterLOGSY assays. The 166 compound samples were screened by STD-NMR for evidence of binding to GST-KIF15 or His-TPX2. In our assessment, no hits bound to His-TPX2. The protocol counter-screened potential hits against a His-GST peptide^99 and for aggregation using protein-free controls. Ultimately, three compound hits representing two compound chemotypes were validated to bind KIF15 by WaterLOGSY (FIGS. 4A-4B).

Another data set has as its target His-TPX2 346-747 (Homo sapiens (Human), UniProt Q9ULW0). As to the kind of experiment: NMR (STD-NMR / WaterLOGSY) versus His-TPX2. In kind it is binding. Particulars: 1:150 His-TPX2 346-747.
Description: as §1, §2

For a further data set, the target named is KIF15-HiBiT (Homo sapiens (Human), UniProt Q9NS87). In words: Cellular thermal shift assay (CETSA), HiBiT split luciferase. The format is cell-based. Particulars: 100 μM. How it is done: To verify that the three putative binders of KIF15 identified by NMR spectroscopy against KIF15 fragments, a cellular thermal shift assay was performed. All three compounds at 100 μM stabilized KIF15 when thermally challenged to a greater extent than the TPX2 mimetic peptide used as a positive control (Δ5.7° C. for compound A1, Δ5.3° C. for compound A2, and Δ9.6° C. for compound B1, Δ2.1° C. for TPX2 mimetic peptide).
The HiBiT Split Luciferase based protein detection method utilized for screening of candidate compounds for physical binding to KIF15. […] The increase in stability of the protein indicates ligand engagement by stabilizing the protein in a natured conformation.
These three compound hits, referred to as Compounds A1, A2 and B1 (FIG. 3A) were screened for target engagement in CETSA. In short, a split luciferase tag known as HiBiT (Promega, Madison, WI) was fused to the KIF15 protein in a transient expression vector. Soluble protein can be easily quantified by adding the LgBiT subunit of nano luciferase. A stabilizing shift in the melting temperature of the protein indicates the protein is being stabilized by the engaged small molecule indicating direct binding of the small molecule to its target.
For orientation: The HiBiT peptide binds its large partner to form an active luciferase.

For data set [2], the system named is EOC cell lines (A2780, OVCAR5, and SKOV3). In words: Synergy with ispinesib in cell viability (Bliss score). The format is cell-based. Particulars: combination with ispinesib. From the text: The protocol tested all 166 samples of compound hits for complete screening for synergism in KIF11-inhibited cells EOC cell lines (A2780, OVCAR5, and SKOV3) (FIGS. 5A-5C).
Bliss score analyzes the statistical independence of the two treatments. A positive score indicates synergism, a negative score indicates antagonism and a score of zero indicates a purely additive effect of the combination therapy.

The next data set concerns the target KIF15 (Homo sapiens (Human), UniProt Q9NS87). As to conditions: read-out: median inhibitory concentration; cited from earlier work.
The next data set concerns the target KIF11 (Homo sapiens (Human), UniProt P52732). Particulars: b18, cited from earlier work.
For data set [3], the system named is HIO-80, HIO-118, FT190, FT194. In words: CellTiter Glo cell viability, immortalized non-tumorigenic cell lines. In kind it is cell-based. Particulars: control cell lines, 72 hours. A general note: ATP-based viability assays read luminescence as a measure of living cells.
Data set [4] deals with ovarian cancer cell lines. As to conditions: 72 h.
The test system of data set [5] is ovarian cancer cell lines. As to the kind of experiment: cells. Particulars: 72 h, read-out: IC50 cell viability.

Sequence of GST-KIF15 1149-1388 (Q9NS87 1149-1388): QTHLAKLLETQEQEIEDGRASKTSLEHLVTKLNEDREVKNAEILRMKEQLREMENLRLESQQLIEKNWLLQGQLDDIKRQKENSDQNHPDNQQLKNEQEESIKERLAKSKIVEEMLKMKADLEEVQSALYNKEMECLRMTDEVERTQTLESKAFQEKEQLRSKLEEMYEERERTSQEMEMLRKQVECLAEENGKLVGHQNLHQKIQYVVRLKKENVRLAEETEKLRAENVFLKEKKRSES
Sequence of His-TPX2 346-747 (Q9ULW0 346-747): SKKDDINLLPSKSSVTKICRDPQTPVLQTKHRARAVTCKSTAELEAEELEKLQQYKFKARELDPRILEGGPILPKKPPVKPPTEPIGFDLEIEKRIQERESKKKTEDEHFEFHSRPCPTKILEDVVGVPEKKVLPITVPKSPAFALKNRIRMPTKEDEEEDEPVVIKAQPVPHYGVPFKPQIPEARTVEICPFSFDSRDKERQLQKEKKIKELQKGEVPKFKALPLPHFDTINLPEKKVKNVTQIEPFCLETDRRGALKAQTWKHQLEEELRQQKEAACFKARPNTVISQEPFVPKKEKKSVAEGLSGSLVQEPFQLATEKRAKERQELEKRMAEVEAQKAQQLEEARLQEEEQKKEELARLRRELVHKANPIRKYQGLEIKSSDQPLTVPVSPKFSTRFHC
Sequence of KIF15/TPX2 protein-protein interaction (GST-KIF15 amino acids 1149-1388, His-TPX2 amino acids 346-747) (Q9NS87 1149-1388): as the sequence (Q9NS87 1149-1388) above
Sequence of KIF11 (P52732 whole entry): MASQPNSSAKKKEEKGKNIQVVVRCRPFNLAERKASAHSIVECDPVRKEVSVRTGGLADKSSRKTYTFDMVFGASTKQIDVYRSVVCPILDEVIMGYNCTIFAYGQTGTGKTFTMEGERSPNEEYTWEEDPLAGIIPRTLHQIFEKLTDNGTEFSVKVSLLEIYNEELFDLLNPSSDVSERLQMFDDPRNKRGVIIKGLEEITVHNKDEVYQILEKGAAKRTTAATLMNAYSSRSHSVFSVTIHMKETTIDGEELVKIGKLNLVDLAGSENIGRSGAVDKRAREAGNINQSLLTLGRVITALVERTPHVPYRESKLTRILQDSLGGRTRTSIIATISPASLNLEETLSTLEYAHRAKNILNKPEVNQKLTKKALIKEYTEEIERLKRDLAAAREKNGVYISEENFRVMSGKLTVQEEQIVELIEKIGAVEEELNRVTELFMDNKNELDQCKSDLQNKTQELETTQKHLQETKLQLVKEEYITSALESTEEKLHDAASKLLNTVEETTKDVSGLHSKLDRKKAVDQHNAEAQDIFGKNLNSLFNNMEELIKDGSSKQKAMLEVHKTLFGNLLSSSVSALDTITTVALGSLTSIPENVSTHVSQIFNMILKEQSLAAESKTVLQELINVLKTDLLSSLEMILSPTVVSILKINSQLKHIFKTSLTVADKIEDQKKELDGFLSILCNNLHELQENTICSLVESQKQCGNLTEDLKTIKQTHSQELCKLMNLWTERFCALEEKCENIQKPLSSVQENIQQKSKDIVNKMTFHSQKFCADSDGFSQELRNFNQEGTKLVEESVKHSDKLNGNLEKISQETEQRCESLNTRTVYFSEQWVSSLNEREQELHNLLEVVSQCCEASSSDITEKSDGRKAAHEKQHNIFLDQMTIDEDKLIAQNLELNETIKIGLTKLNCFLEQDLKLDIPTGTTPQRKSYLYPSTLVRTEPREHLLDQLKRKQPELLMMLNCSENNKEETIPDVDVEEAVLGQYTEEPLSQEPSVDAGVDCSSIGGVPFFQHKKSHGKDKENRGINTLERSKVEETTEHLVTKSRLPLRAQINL
Sequence of KIF15-HiBiT (Q9NS87 whole entry, the tested form may be a part): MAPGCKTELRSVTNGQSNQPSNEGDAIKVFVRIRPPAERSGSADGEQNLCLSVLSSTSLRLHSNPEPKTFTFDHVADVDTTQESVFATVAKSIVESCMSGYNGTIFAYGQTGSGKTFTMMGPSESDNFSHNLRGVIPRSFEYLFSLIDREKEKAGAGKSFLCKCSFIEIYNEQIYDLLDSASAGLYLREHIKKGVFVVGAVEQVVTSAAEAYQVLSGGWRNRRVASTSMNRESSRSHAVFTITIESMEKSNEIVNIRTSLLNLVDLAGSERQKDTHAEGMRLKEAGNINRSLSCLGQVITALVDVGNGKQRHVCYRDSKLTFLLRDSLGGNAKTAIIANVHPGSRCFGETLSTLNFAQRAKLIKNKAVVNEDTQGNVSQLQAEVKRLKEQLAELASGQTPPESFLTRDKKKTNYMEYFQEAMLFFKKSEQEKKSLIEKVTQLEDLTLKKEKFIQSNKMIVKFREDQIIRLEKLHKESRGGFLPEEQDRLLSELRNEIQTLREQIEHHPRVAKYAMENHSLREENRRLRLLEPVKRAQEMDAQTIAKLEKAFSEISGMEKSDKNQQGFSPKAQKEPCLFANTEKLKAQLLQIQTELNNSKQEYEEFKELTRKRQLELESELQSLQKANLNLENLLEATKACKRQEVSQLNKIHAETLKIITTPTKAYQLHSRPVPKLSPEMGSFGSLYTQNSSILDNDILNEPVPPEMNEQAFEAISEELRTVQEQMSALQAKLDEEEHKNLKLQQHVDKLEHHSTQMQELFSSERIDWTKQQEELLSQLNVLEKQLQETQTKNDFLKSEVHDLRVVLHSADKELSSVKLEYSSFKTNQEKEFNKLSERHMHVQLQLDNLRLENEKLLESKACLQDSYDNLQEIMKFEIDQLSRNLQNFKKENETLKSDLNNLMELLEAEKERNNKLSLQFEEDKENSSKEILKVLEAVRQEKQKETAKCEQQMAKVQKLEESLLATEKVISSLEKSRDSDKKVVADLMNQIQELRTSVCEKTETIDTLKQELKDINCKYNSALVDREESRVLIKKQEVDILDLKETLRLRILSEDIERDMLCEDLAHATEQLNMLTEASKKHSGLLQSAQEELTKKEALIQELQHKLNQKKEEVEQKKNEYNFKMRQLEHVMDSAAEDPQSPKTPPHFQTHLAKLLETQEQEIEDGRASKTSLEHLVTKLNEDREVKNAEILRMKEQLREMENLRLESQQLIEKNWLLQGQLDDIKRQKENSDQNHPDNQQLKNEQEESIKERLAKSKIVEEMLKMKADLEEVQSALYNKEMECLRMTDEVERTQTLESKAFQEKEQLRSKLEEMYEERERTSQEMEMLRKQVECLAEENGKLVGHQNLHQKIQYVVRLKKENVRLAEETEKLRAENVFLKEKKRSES
Sequence of KIF15 (Q9NS87 whole entry): as the sequence (Q9NS87 whole entry, the tested form may be a part) above

With `CCN1CCN(c2ncc3c(n2)CCN(Cc2ccccc2Cl)C3)CC1` [Compound 10, 6-(2-chlorobenzyl)-2-(4-ethylpiperazin-1-yl)-5,6,7,8-tetrahydropyrido[4,3-d]pyrimidine], the IC50 in data set [1] is 1500 ± 10 nM; in “TruHits counter-screen” it was 86000 ± 16000 nM. Further, the “WaterLOGSY binding to GST-KIF15” value on GST-KIF15 1149-1388 is on record as “indicates binding”. The “NMR Versus GST-KIF15” value at GST-KIF15 1149-1388 (Hit / No) is given as “Hit”. Moreover, the “WaterLOGSY / STD-NMR binding to His-TPX2” value at His-TPX2 346-747 is on record as “not observed”. Besides, the “shift in thermostability of KIF15” value at KIF15-HiBiT is on record as “significant shift in thermostability”. The “synergy with ispinesib in inhibition of growth” value in data set [2] is recorded as “Synergy”.
As for `C=CCn1c(C(=O)NCc2ccccn2)cc2sc(C)cc21` [Compound 14, 4-allyl-2-methyl-N-(pyridin-2-ylmethyl)-4H-thieno[3,2-b]pyrrole-5-carboxamide], the IC50 in data set [1] worked out at 5600 ± 300 nM; in “TruHits counter-screen”, 87000 ± 2000 nM. Also, at GST-KIF15 1149-1388, the “WaterLOGSY binding to GST-KIF15” value is “indicates binding”. Besides, the “WaterLOGSY / STD-NMR binding to His-TPX2” value on His-TPX2 346-747 is listed as “not observed”. Also, the “shift in thermostability of KIF15” value on KIF15-HiBiT was “significant shift in thermostability”. Moreover, the “synergy with ispinesib in inhibition of growth” value in [2] is on record as “Synergy”.
Regarding `O=C1Nc2ccc(C(=O)c3ccco3)cc2/C1=C/c1cc(Cl)c(O)c(Cl)c1` [GW108X], on KIF15, the IC50 was 800 nM.
Regarding `CON(C)C(=O)N1N=C(c2cc(F)ccc2F)S[C@@]1(CCCN)c1ccccc1` [filanesib], at KIF11 (read-out: K values), the Ki is 6 nM.
On to `Cc1ccc(C(=O)N(CCCN)[C@@H](c2nc3cc(Cl)ccc3c(=O)n2Cc2ccccc2)C(C)C)cc1` [ispinesib], for which the IC50 in [3] fell in the range of 7.04 to 23.4 nM; in [5], 1.07 to 15.8 nM. Moreover, the loss of viability result in [4] is reported as “greater than 50%”.
As for `CCOC(=O)C1=C(C)NC(=S)NC1c1cccc(O)c1` (stereo not shown) [monastrol], the “inhibit motor ATP hydrolysis” value on KIF11 was 4.9 µM.

Source of the values: US20240342179A1, “TREATMENT OF CANCERS OR NEOPLASMS BY INHIBITING KIF15” (University of Kansas, priority 2023, published 2024).
